Results from patent US20020151534A1, “Antithrombotic compounds” (priority 2001, published 2002).

Molecular target: T1, human factor Xa (Homo sapiens, UniProt P00742)
T1 construct: released from the colourless chromogenic substrate by human factor Xa; purchased Roche
Assay: Inhibition of factor Xa, enzyme-kinetic measurement with chromogenic substrate
Type: biochemical
Conditions: substrate Chromozym X 200 μMol/l, pNA release at 405 nm, pH 8.0, 37° C.
Method: Enzyme-kinetic measurement with chromogenic substrate. The quantity of anp-nitroaniline (pNA) released from the colourless chromogenic substrate by human factor Xa is determined photometrically at 405 nm. It is proportional to the activity of the enzyme used. The inhibition of the enzyme activity by the test substance I (in relation to the solvent control) is determined at various concentrations of test substance and from this the IC50 is calculated, as the concentration which inhibits the factor Xa used by 50%.
Tris(hydroxymethyl)-aminomethane buffer (100 mmol) and sodium chloride (150 mMol), pH 8.0
Factor Xa (Roche), spec. activity: 10 U/0.5 ml, final concentration: 0.175 U/ml for each reaction mixture
Substrate Chromozym X (Roche), final concentration: 200 μMol/l for each reaction mixture
10 μl of a 23.5-times concentrated starting solution of the test substance or solvent (control), 175 μl of tris(hydroxymethyl)-aminomethane buffer and 25 μl of a 1.65 U/ml Factor Xa working solution are incubated for 10 minutes at 37° C. After the addition of 25 μl of Chromozym X working solution ([…]) the sample is measured in a photometer (SpectraMax 250) at 405 nm for 150 seconds at 37° C.
1. Determining the maximum increase (deltaOD/minutes) over 3 measuring points.
2. Determining the % inhibition based on the solvent control.
3. Plotting a dosage/activity curve (% inhibition vs substance concentration).
4. Determining the IC50 by interpolating the X value (substance concentration) of the dosage/activity curve at Y=50% inhibition.

T1 sequence (P00742 235-488 limits assumed): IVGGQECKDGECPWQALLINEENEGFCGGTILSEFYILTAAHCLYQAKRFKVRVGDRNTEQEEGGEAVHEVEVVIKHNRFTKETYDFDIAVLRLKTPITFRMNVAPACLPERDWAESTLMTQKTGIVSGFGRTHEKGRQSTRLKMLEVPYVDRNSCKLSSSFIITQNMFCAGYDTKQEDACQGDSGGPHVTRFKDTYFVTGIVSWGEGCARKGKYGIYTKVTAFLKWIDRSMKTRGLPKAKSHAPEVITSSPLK
T1 sequence (P00742 41-179 partner limits assumed): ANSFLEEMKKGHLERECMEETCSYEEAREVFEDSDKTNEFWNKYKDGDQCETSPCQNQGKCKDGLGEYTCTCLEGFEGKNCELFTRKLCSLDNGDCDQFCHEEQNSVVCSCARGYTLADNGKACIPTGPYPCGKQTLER

SMILES | IC50
Cc1cc(NCCc2cc(C(=N)N)ccc2O)ccc1C(=O)N1CCCC1 [(1)] | 0.084 µM
CCOC(=O)CCC(=O)N(c1ccc(C(=O)NCc2cc(C(=N)N)ccc2O)cc1C)C1CCCC1 [(3)] | 0.075 µM
Cc1cc(C(=O)NC(CC(=O)O)c2cccc(C(=N)N)c2)ccc1C(=O)N1CCCC1 (centres unmarked) [(5)] | 0.031 µM

Now those with a lower IC50, led by results:

IC50 | SMILES
0.014 µM | Cc1cc(C(=O)NCc2cc(C(=N)N)ccc2O)ccc1C(=O)N1CCCC1 [(2)]
0.01 µM | N=C(N)c1ccc(O)c(CNC(=O)c2ccc(C(=O)N3CCCC3)c(Cl)c2)c1 [(4)]
